From patent US20190256474A1, “N-PHENYL-2-(3-PHENYL-6-OXO-1,6-DIHYDROPYRIDAZIN-1-YL)ACETAMIDE DERIVATIVES FOR TREATING CYSTIC FIBROSIS” (Proteostasis Therapeutics, Inc., priority 2016, published 2019)

Target: T1, ΔF508-CFTR (Homo sapiens, UniProt P13569, DEL508-508)
T1 construct: Primary lung epithelial cells homozygous for the Cystic Fibrosis-causing ΔF508 mutation were differentiated; endogenous in cells; host or cells: primary human bronchial epithelial cells (hBE), ΔF508/ΔF508
Assay: hBE equivalent current (Ieq) assay, CFTR activity
Assay type: cell-based
Settings: relative to a CFTR amplifier at 3 μM, ΔF508 homozygous hBE, 24 h treatment; for Activity 3 μM: compound at 3 μM; for Activity 10 μM: compound at 10 μM
Method: Primary lung epithelial cells homozygous for the Cystic Fibrosis-causing ΔF508 mutation were differentiated for a minimum of 4 weeks in an air-liquid interface on Costar 24 well HTS filter plates prior to the equivalent current (Ieq) measurements. Cells were apically mucus-washed for 30 minutes 24 h prior to treatment with compounds. The basolateral media was removed and replaced with media containing the compound of interest diluted to its final concentration from DMSO stocks. Treated cells were incubated at 37° C. and 5% CO2 for 24 hours. At the end of the treatment period, the media was changed to the Ieq experimental solution for 2 hours before the experiment and plates are maintained in a CO2-free incubator during this period. The plates containing the cells were then placed in pre-warmed heating blocks at 36° C.±0.5 for 15 minutes before measurements are taken. The transepithelial voltage (VT) and conductance (GT) were measured using a custom 24 channel current clamp (TECC-24) with 24 well electrode manifold. The Ieq assay measurements were made following additions with standardized time periods:
1. The baseline VT and GT values were measured for approximately 20 minutes.
2. Benzamil was added to block ENaC for 15 minutes.
3. Forskolin plus VX-770 were added to maximally activate ΔF508-CFTR for 27 minutes.
4. Bumetanide was added to inhibit the NaK2Cl cotransporter and shut-off secretion of chloride.
The activity data captured was the area under the curve (AUC) for the traces of the equivalent chloride current. The AUC was collected from the time of the forskolin/VX-770 addition until the inhibition by bumetanide addition. Correction in response to compound treatment was scored as the increase in the AUC for compound-treated samples over that of vehicle-treated samples.
The results are shown below in Table 1. + indicates activity <150% of a CFTR amplifier with compound at concentration shown and amplifier at 3 μM; ++ indicates activity >150% of a CFTR amplifier with compound at concentration shown and amplifier at 3 μM.

T1 sequence (P13569 with tags, fused parts or gaps DEL508-508): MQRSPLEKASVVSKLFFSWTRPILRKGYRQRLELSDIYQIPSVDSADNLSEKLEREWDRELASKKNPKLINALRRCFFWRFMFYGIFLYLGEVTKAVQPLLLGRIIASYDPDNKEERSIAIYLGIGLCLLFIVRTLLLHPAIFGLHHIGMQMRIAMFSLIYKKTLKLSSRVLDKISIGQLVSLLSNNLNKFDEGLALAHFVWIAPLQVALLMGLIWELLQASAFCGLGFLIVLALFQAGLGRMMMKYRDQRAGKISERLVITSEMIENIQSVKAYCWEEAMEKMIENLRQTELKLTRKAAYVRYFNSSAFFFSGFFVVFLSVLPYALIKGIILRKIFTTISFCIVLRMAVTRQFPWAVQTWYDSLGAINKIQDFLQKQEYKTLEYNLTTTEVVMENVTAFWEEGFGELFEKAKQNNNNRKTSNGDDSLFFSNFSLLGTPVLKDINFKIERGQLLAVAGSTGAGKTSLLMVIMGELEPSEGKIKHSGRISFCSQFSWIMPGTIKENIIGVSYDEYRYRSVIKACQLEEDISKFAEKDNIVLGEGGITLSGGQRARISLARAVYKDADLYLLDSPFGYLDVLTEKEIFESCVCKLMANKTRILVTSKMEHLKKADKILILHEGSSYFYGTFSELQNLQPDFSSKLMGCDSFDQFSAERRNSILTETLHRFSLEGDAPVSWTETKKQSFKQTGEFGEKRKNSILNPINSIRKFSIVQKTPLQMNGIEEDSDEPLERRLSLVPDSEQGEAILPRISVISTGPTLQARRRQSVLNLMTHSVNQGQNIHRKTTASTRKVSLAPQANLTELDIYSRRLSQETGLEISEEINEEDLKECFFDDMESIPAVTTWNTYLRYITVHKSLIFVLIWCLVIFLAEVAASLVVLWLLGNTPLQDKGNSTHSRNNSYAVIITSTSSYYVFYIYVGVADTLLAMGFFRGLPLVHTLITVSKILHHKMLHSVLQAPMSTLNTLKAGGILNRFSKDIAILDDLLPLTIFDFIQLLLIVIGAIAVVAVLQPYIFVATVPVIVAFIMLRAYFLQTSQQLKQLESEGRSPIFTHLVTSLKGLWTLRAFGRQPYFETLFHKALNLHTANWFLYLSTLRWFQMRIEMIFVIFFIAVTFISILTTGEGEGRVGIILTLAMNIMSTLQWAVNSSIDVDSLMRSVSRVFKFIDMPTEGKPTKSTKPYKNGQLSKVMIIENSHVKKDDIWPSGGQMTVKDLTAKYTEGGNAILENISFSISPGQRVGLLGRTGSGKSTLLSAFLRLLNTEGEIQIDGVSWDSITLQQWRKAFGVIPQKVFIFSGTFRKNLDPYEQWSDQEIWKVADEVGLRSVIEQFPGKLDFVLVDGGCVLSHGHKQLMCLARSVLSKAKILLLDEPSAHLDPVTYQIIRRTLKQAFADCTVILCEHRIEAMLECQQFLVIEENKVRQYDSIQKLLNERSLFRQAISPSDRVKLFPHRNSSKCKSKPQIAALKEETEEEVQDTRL

SMILES	Activity 3 μM	Activity 10 μM
CC(C(=O)Nc1ccc(C(F)(F)F)cc1)n1nc(-c2cccc(Oc3ccccc3)c2)ccc1=O (stereo not shown) [Compound 51, 2-[3-[3-(Phenoxy)phenyl]-6-oxo-1,6-dihydropyridazin-1-yl]-N-[4-(trifluoromethyl)phenyl]propanamide]	++ (activity >150% of a CFTR amplifier with compound at concentration shown and amplifier at 3 μM)	++ (activity >150% of a CFTR amplifier with compound at concentration shown and amplifier at 3 μM)
CC(C(=O)Nc1ccc(C(F)(F)F)cc1)n1nc(-c2cccc(C(F)(F)F)c2)ccc1=O (stereo not shown) [Compound 33, 2-[6-Oxo-3-[3-(trifluoromethyl)phenyl]-1,6-dihydropyridazin-1-yl]-N-[4-(trifluoromethyl)phenyl]propanamide]	++ (activity >150% of a CFTR amplifier with compound at concentration shown and amplifier at 3 μM)	++ (activity >150% of a CFTR amplifier with compound at concentration shown and amplifier at 3 μM)
COc1cccc(-c2ccc(=O)n(C(C)C(=O)Nc3ccc(Cl)cc3)n2)c1 (stereo not shown) [Compound 14, N-(4-Chlorophenyl)-2-[3-(3-methoxyphenyl)-6-oxo-1,6-dihydropyridazin-1-yl]propanamide]	–	++ (activity >150% of a CFTR amplifier with compound at concentration shown and amplifier at 3 μM)
CC(C(=O)Nc1ccc(C(F)(F)F)cc1)n1nc(-c2ccccc2Cl)ccc1=O (stereo not shown) [Compound 29, 2-[3-(2-Chlorophenyl)-6-oxo-1,6-dihydropyridazin-1-yl]-N-[4-(trifluoromethyl)phenyl]propanamide]	+ (activity <150% of a CFTR amplifier with compound at concentration shown and amplifier at 3 μM)	+ (activity <150% of a CFTR amplifier with compound at concentration shown and amplifier at 3 μM)
COc1cccc(-c2ccc(=O)n(C(C)C(=O)Nc3cc(Cl)cc(Cl)c3)n2)c1 (stereo not shown) [Compound 46, N-(3,5-Dichlorophenyl)-2-(3-(3-methoxyphenyl)-6-oxopyridazin-1(6H)-yl)propanamide]	++ (activity >150% of a CFTR amplifier with compound at concentration shown and amplifier at 3 μM)	++ (activity >150% of a CFTR amplifier with compound at concentration shown and amplifier at 3 μM)
CCC(C(=O)Nc1ccc(C(F)(F)F)cc1)n1nc(-c2cccc(OC)c2)ccc1=O (stereo not shown) [Compound 38, 2-[3-(3-Methoxyphenyl)-6-oxo-1,6-dihydropyridazin-1-yl]-N-[4-(trifluoromethyl)phenyl]butanamide]	++ (activity >150% of a CFTR amplifier with compound at concentration shown and amplifier at 3 μM)	++ (activity >150% of a CFTR amplifier with compound at concentration shown and amplifier at 3 μM)
CC(C(=O)Nc1ccc(C(F)(F)F)cc1)n1nc(-c2ccc(C#N)cc2)ccc1=O (stereo not shown) [Compound 37, 2-[3-(4-Cyanophenyl)-6-oxo-1,6-dihydropyridazin-1-yl]-N-[4-(trifluoromethyl)phenyl]propanamide]	+ (activity <150% of a CFTR amplifier with compound at concentration shown and amplifier at 3 μM)	+ (activity <150% of a CFTR amplifier with compound at concentration shown and amplifier at 3 μM)
COc1cccc(-c2ccc(=O)n(C(C)C(=O)Nc3cccc(Cl)c3)n2)c1 (stereo not shown) [Compound 13, N-(3-Chlorophenyl)-2-[3-(3-methoxyphenyl)-6-oxo-1,6-dihydropyridazin-1-yl]propanamide]	++ (activity >150% of a CFTR amplifier with compound at concentration shown and amplifier at 3 μM)	++ (activity >150% of a CFTR amplifier with compound at concentration shown and amplifier at 3 μM)
COc1cccc(-c2ccc(=O)n(C(C)(C(=O)Nc3ccc(C(F)(F)F)cc3)c3ccccc3)n2)c1 (stereo not shown) [Compound 54, 2-(3-(3-Methoxyphenyl)-6-oxopyridazin-1(6H)-yl)-2-phenyl-N-(4-(trifluoromethyl)phenyl)propanamide]	–	+ (activity <150% of a CFTR amplifier with compound at concentration shown and amplifier at 3 μM)
